From patent US11098058B2, “Bicyclic ketone compounds and methods of use thereof” (Genentech, Inc., priority 2017, dated 2021)

These compounds were tested against human RIP1 kinase domain (2-375) (Homo sapiens (Human), UniProt Q13546). Conditions: RIP1 kinase inhibition, tight-binding apparent Ki; 50 nM enzyme, 50 μM ATP, 2 hours incubation.
Chain of human RIP1 kinase domain (2-375) (Q13546 2-375): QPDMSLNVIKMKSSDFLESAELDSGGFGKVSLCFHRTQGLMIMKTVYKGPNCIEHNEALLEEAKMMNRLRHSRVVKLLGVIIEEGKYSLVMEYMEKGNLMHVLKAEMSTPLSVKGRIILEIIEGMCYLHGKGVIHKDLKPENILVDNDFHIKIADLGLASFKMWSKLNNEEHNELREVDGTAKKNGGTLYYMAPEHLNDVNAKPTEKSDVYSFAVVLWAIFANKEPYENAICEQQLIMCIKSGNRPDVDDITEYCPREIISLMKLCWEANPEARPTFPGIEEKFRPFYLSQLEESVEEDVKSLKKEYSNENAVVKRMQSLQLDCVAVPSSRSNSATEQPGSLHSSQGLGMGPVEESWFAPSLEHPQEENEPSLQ
Protocol: RIP1 Kinase Inhibition Assays (Biochemical Assay)
The ability of the receptor interacting protein kinase (RIPK1) to catalyze the hydrolysis of adenosine-5′-triphosphate (ATP) is monitored using the Transcreener ADP (adenosine-5′-diphosphate) assay (BellBrook Labs). Purified human RIP1 kinase domain (2-375) (50 nM) derived from a baculovirus-infected insect cell expression system is incubated with test compounds for 2 hours in 50 mM Hepes buffer (pH 7.5) containing 30 mM MgCl2, 1 mM dithiothreitol, 50 μM ATP, 0.002% Brij-35, and 0.5% dimethyl sulfoxide (DMSO). […] The tracer bound to the antibody is displaced by the ADP generated during the RIP1K reaction, which causes a decrease in fluorescence polarization that is measured by laser excitation at 633 nm with a FP microplate reader M1000. Fractional activity was plotted against test article concentration. Using Genedata Screener software (Genedata; Basel, Switzerland), the data were fit to the tight-binding apparent inhibition constant (Ki^app) Morrison equation [Williams, J. W. and Morrison, J. F. (1979) The kinetics of reversible tight-binding inhibition. […] The following equation was used to calculate fractional activity and Ki^app:
[formula] where [E]T and [I]T are the total concentrations of active enzyme and test article, respectively.

SMILES | Ki
C[C@H]1C[C@@H]1C(=O)c1nc2n(n1)[C@H](c1ccccc1)C[C@@H]2F (single isomer, unassigned) [Example 89] | 15 nM
C[C@@H]1C[C@H]1C(=O)c1nc2n(n1)[C@H](c1ccccc1)C[C@@H]2F (single isomer, unassigned) [Example 91] | 3.4 nM
O=C(c1nc2n(n1)[C@H](c1ccccc1)C[C@@H]2F)[C@@H]1C[C@H]2CC[C@@H]1O2 (single isomer, unassigned) [Example 140] | 150 nM
O=C(c1nc2n(n1)[C@H](c1ccccc1)C[C@@H]2O)C1CC1 (single isomer, unassigned) [Example 87] | 13 nM
O=C(c1nc2n(n1)[C@H](c1ccccc1)C[C@@H]2F)C1CC(F)(F)C1 (single isomer, unassigned) [Example 73] | 3.4 nM
O=C(c1nc2n(n1)[C@H](c1c(F)cccc1F)C[C@@H]2F)C1CC1 (single isomer, unassigned) [Example 94] | 3.1 nM

Now from value to compound:

Ki | SMILES
230 nM | O=C(c1nc2n(n1)[C@H](c1ncccc1F)C[C@H]2F)C1CC1 (single isomer, unassigned) [Example 151]
32 nM | Cn1cc(Cl)c([C@@H]2C[C@H](F)c3nc(C(=O)C4CC4)nn32)n1 [Example 154, ((5S,7S)-5-(4-chloro-1-methyl-1H-pyrazol-3-yl)-7-fluoro-6,7-dihydro-5H-pyrrolo[1,2-b][1,2,4]triazol-2-yl)(cyclopropyl)methanone]
380 nM | Cc1oncc1C1CC(F)c2nc(C(=O)C3CC3)nn21 (stereo not drawn) [Example 153, cyclopropyl(7-fluoro-5-(5-methylisoxazol-4-yl)-6,7-dihydro-5H-pyrrolo[1,2-b][1,2,4]triazol-2-yl)methanone]
